ChEMBL document CHEMBL4609994, “Application of protein knockdown strategy targeting β-sheet structure to multiple disease-associated polyglutamine proteins” (Bioorg Med Chem, 2020)
Calls of active or inactive are those of the source. No cut-off for these calls is given here.

Experiments:
[1] = test system: Baculoviral IAP repeat-containing protein 2/Ataxin-7 (Homo sapiens), Q13490+O15265 [UNDEFINED MUTATION]; assay: Protac activity at C-IAP1/ataxin-7 mutant in fibroblasts derived from SCA7 patient assessed as reduction in mutant ataxin-7 expression at 10 uM after 24 hrs by Western blot analysis
Chain of Baculoviral IAP repeat-containing protein 2/Ataxin-7 (Homo sapiens), Q13490+O15265 [UNDEFINED MUTATION] (O15265 whole entry, looked up, change not shown): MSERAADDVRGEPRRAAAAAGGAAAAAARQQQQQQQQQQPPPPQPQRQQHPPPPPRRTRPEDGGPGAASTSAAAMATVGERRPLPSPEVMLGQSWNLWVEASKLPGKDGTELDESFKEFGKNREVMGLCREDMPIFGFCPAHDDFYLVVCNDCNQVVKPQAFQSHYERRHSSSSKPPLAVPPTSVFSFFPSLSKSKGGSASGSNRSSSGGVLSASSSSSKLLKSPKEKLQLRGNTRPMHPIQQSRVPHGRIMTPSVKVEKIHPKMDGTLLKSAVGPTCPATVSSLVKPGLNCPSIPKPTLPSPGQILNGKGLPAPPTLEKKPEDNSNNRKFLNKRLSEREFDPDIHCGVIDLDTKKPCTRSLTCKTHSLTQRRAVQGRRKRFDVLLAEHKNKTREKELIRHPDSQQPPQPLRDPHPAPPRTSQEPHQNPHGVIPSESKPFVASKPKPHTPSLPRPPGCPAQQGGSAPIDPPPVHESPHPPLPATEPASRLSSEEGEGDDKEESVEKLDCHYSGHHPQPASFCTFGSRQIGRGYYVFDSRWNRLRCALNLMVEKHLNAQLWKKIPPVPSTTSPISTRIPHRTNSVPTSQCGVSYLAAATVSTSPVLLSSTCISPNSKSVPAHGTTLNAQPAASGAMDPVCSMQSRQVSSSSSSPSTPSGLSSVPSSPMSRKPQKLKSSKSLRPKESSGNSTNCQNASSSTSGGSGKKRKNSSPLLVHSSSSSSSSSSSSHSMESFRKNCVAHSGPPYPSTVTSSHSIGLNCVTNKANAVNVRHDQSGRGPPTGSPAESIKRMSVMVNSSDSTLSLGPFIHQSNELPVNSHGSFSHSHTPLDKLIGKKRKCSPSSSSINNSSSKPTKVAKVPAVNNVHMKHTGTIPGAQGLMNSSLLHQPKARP
Chain of Baculoviral IAP repeat-containing protein 2/Ataxin-7 (Homo sapiens), Q13490+O15265 [UNDEFINED MUTATION] (Q13490 whole entry, looked up, change not shown): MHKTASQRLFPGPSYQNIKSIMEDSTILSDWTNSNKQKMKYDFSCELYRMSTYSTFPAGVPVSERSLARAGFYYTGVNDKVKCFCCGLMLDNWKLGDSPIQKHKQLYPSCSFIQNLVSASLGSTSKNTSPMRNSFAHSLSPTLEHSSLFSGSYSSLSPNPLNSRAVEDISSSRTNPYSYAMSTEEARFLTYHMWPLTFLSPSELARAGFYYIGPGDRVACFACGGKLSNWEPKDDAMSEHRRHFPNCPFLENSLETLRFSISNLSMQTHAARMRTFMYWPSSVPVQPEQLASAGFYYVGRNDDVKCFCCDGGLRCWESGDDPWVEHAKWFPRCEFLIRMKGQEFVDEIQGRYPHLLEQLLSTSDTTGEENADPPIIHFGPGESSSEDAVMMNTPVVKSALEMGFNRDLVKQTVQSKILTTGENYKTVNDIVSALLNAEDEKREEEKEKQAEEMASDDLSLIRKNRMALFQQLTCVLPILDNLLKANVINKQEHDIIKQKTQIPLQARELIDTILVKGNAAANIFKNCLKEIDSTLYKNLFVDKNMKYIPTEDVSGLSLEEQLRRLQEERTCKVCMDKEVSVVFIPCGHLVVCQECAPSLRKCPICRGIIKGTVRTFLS

[2] = test system: Baculoviral IAP repeat-containing protein 2/Ataxin-7 (Homo sapiens), Q13490+O15265 [UNDEFINED MUTATION]; assay: Protac activity at C-IAP1/ataxin-7 mutant in fibroblasts derived from SCA7 patient assessed as reduction in mutant ataxin-7 expression at 10 uM after 24 hrs in presence of proteasome inhibitor epoxomicin by Western blot analysis
[3] = test system: Baculoviral IAP repeat-containing protein 2/Atrophin-1 (Homo sapiens), Q13490+P54259 [UNDEFINED MUTATION]; assay: Protac activity at C-IAP1/atrophin-1 mutant in fibroblasts derived from DRPLA patient assessed as reduction in mutant atrophin-1 expression at 10 uM after 24 hrs by Western blot analysis
Chain of Baculoviral IAP repeat-containing protein 2/Atrophin-1 (Homo sapiens), Q13490+P54259 [UNDEFINED MUTATION] (P54259 whole entry, looked up, change not shown): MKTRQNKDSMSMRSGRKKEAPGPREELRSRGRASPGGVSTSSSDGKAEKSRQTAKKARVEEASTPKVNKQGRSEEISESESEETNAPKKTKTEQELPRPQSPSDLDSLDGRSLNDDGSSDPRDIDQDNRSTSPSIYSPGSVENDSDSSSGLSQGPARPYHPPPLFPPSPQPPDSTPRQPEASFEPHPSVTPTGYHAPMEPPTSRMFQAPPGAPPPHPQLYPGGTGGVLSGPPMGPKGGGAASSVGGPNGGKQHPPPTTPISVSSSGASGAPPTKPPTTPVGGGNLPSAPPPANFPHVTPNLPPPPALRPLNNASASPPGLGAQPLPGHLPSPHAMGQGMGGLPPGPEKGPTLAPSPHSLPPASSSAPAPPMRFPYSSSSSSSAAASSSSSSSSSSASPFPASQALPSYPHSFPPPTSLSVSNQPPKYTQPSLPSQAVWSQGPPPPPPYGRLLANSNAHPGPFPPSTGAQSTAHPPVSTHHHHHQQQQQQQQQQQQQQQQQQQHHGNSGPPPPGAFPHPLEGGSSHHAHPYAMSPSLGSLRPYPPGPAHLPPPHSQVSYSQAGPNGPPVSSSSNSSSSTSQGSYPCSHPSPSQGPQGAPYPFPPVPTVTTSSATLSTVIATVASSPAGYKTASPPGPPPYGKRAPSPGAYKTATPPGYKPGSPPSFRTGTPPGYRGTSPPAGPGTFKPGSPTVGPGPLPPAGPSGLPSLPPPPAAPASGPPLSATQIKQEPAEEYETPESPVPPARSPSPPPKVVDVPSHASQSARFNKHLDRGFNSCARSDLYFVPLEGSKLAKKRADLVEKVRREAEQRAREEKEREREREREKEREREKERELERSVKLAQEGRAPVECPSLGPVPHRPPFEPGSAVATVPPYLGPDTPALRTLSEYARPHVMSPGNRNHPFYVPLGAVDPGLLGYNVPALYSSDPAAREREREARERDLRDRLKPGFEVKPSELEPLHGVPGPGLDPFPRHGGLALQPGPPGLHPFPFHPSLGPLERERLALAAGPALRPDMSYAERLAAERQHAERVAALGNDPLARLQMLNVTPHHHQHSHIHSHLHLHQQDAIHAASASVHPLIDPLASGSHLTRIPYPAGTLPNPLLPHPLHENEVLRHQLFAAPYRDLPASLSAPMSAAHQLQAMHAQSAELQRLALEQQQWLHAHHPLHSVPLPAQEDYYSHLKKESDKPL
Chain of Baculoviral IAP repeat-containing protein 2/Atrophin-1 (Homo sapiens), Q13490+P54259 [UNDEFINED MUTATION] (Q13490 whole entry, looked up, change not shown): as the sequence (Q13490 whole entry, looked up, change not shown) above

[4] = test system: Baculoviral IAP repeat-containing protein 2/Atrophin-1 (Homo sapiens), Q13490+P54259 [UNDEFINED MUTATION]; assay: Protac activity at C-IAP1/atrophin-1 mutant in fibroblasts derived from DRPLA patient assessed as reduction in mutant atrophin-1 expression at 10 uM after 24 hrs in presence of proteasome inhibitor epoxomicin by Western blot analysis
[5] = test system: Baculoviral IAP repeat-containing protein 2/Atrophin-1 (Homo sapiens), Q13490+P54259 [UNDEFINED MUTATION]; assay: Protac activity at C-IAP1/atrophin-1 mutant in fibroblasts derived from DRPLA patient assessed as reduction in mutant atrophin-1 expression at 10 uM by Western blot analysis; conditions: TDE = time-dependent effect
[6] = test system: Baculoviral IAP repeat-containing protein 2/Atrophin-1 (Homo sapiens), Q13490+P54259 [UNDEFINED MUTATION]; assay: Protac activity at C-IAP1/atrophin-1 mutant in fibroblasts derived from DRPLA patient assessed as reduction in mutant atrophin-1 expression at 10 uM after 24 hrs in presence of proteasome inhibitor MG132 by Western blot analysis
[7] = test system: Baculoviral IAP repeat-containing protein 2/Ataxin-3 (Homo sapiens), Q13490+P54252 [UNDEFINED MUTATION]; assay: Protac activity at C-IAP1/ataxin-3 mutant in fibroblasts derived from SCA3 patient assessed as reduction in mutant ataxin-3 expression at 10 uM by Western blot analysis; conditions: TDE = time-dependent effect
Chain of Baculoviral IAP repeat-containing protein 2/Ataxin-3 (Homo sapiens), Q13490+P54252 [UNDEFINED MUTATION] (P54252 whole entry, looked up, change not shown): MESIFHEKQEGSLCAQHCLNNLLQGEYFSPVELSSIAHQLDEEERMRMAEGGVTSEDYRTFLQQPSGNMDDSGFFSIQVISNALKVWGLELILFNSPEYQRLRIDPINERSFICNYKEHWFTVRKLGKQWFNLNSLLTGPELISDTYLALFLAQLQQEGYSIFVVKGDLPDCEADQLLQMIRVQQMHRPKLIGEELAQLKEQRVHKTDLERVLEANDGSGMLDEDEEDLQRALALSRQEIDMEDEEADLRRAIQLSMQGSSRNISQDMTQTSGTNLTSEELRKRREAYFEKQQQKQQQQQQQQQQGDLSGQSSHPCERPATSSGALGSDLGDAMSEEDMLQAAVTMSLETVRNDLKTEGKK
Chain of Baculoviral IAP repeat-containing protein 2/Ataxin-3 (Homo sapiens), Q13490+P54252 [UNDEFINED MUTATION] (Q13490 whole entry, looked up, change not shown): as the sequence (Q13490 whole entry, looked up, change not shown) above

[8] = test system: Baculoviral IAP repeat-containing protein 2/Ataxin-7 (Homo sapiens), Q13490+O15265 [UNDEFINED MUTATION]; assay: Protac activity at C-IAP1/ataxin-7 mutant in fibroblasts derived from SCA7 patient assessed as reduction in mutant ataxin-7 expression at 10 uM by Western blot analysis; conditions: TDE = time-dependent effect
[9] = test system: Baculoviral IAP repeat-containing protein 2/Atrophin-1 (Homo sapiens), Q13490+P54259 [UNDEFINED MUTATION]; assay: Protac activity at C-IAP1/atrophin-1 mutant in fibroblasts derived from DRPLA patient assessed as reduction in mutant atrophin-1 expression after 24 to 48 hrs by Western blot analysis
[10] = test system: Baculoviral IAP repeat-containing protein 2/Ataxin-3 (Homo sapiens), Q13490+P54252 [UNDEFINED MUTATION]; assay: Protac activity at C-IAP1/Ataxin-3 mutant in fibroblasts derived from SCA3 patient assessed as reduction in mutant ataxin-3 expression after 24 to 48 hrs by Western blot analysis
[11] = test system: Baculoviral IAP repeat-containing protein 2/Ataxin-7 (Homo sapiens), Q13490+O15265 [UNDEFINED MUTATION]; assay: Protac activity at C-IAP1/ataxin-7 mutant in fibroblasts derived from SCA7 patient assessed as reduction in mutant ataxin-7 expression at 10 uM after 24 hrs in presence of proteasome inhibitor MG132 by Western blot analysis
[12] = test system: Baculoviral IAP repeat-containing protein 2/Ataxin-7 (Homo sapiens), Q13490+O15265 [UNDEFINED MUTATION]; assay: Protac activity at C-IAP1/ataxin-7 mutant in fibroblasts derived from SCA7 patient assessed as reduction in mutant ataxin-7 expression after 24 to 48 hrs by Western blot analysis

SMILES | Activity [1] | Activity [2] | Activity [3] | Activity [4] | Activity [5] | Activity [6] | Activity [7] | Activity [8] | Activity [9] | Activity [10] | Activity [11] | Activity [12]
Cc1ccc2nc(-c3ccc(NCCOCCOCCNC(=O)[C@H](CC(C)C)NC(=O)[C@@H](O)[C@H](N)Cc4ccccc4)cc3)sc2c1 | Active | inactive | Active | inactive | Tde | inactive | Tde | Tde | Dose-dependent effect | Dose-dependent effect | inactive | Dose-dependent effect
CNC(=O)[C@H](CC(C)C)NC(=O)[C@@H](O)[C@H](N)Cc1ccccc1 | inactive |  | inactive |  |  |  |  |  |  |  |  | 
CNc1ccc(-c2nc3ccc(C)cc3s2)cc1 | inactive |  | inactive |  |  |  |  |  |  |  |  | 
CC(C)C[C@H](NC(=O)[C@@H](O)[C@H](N)Cc1ccccc1)C(=O)NCCOCCOCCOc1ccc2nc(/N=N/c3ccc(N(C)C)cc3)sc2c1 |  |  |  |  | Tde |  | Tde | Tde | Dose-dependent effect | Dose-dependent effect |  | Dose-dependent effect
